In patent US11304913B2, “Analgesic compositions” (Vapogenix, Inc., priority 2013, dated 2022):

Assay type: physicochemical
Protocol: A time-dependent evaporation study was performed with a composition of the invention (FIG. 3). Isoflurane alone was used as the control in the experiment.

original weight remaining (0.75 h): 86.8%
lost due to evaporation (after 45 minutes of experiment): 13.2%
SMILES: FC(F)OC(Cl)C(F)(F)F (centres unmarked) [isoflurane]
